Source: patent US20240408169A1 (priority 2023, published 2024)
*1 amine or outer side, *2 acyl side, *3 side chain or, on linkers, in order; H or OH if unused. Where a SMILES comes first, the peptide text is derived from it. Bridges are numbered along the chain shown (N, C = ends). [ ]: non-standard residue; d: D form. The star is where a group is joined. X53 = CN1[C@@H]2CC[C@H]1CN(c1ccc(-c3ccc(Cl)cc3C[C@@H](C(=O)[*:2])N(C)[*:1])cc1)C2; X39 = CN1CCC(n2cc(-c3ccc(-c4ccc(Cl)cc4C[C@@H](C(=O)[*:2])N(C)[*:1])cc3)cn2)CC1; X73 = CN([C@@H](Cc1cc(Cl)ccc1-c1ccc(N2CCN(Cc3cnn(C)c3)CC2)cc1)C(=O)[*:2])[*:1]; X106 = CN([C@@H](Cc1cc(Cl)ccc1-c1ccc(N2CCN(Cc3ccccn3)CC2)cc1)C(=O)[*:2])[*:1]; X38 = CN([C@@H](Cc1cc(Cl)ccc1-c1ccc(N2C[C@H]3COC[C@H]3C2)cc1)C(=O)[*:2])[*:1]; NMePhe(2-(4-MorPh),5-Cl) = CN[C@@H](Cc1cc(Cl)ccc1-c1ccc(N2CCOCC2)cc1)C(=O)O; X21 = CN([C@@H](Cc1cc(Cl)ccc1-c1ccc(N2CCN3CCOC[C@H]3C2)cc1)C(=O)[*:2])[*:1]; X78 = CN1CCN(C2(c3ccc(-c4ccc(Cl)cc4C[C@@H](C(=O)[*:2])N(C)[*:1])cc3)CC2)CC1; X85 = CN([C@@H](Cc1cc(Cl)ccc1-c1ccc([C@]23CCOC[C@H]2C3)nc1)C(=O)[*:2])[*:1]; X45 = CN1CCC(F)(c2ccc(-c3ccc(Cl)cc3C[C@@H](C(=O)[*:2])N(C)[*:1])cc2)CC1; X103 = CN1CCC(Oc2ccc(-c3ccc(Cl)cc3C[C@@H](C(=O)[*:2])N(C)[*:1])cc2)CC1; X36 = Cc1cc(-c2ccc(Cl)cc2C[C@@H](C(=O)[*:2])N(C)[*:1])ccc1N1CCN(C)CC1; X8 = CN1CCN(C2CC=C(c3ccc(Cl)cc3C[C@@H](C(=O)[*:2])N(C)[*:1])CC2)CC1; X91 = COc1cc(-c2ccc(Cl)cc2C[C@@H](C(=O)[*:2])N(C)[*:1])ccc1N1CCOCC1; X6 = CN([C@@H](Cc1cc(Cl)ccc1-c1ccc(-c2cccnc2)cc1)C(=O)[*:2])[*:1]; NMehhhLys(Me) = CN([C@@H](CCCCCCCN(C)[*:3])C(=O)[*:2])[*:1]; cBuCO(3,3-F2-1-CF3) = O=C(C1(C(F)(F)F)CC(F)(F)C1)*; Pro(trans-4-F) = O=C(O)[C@@H]1C[C@@H](F)CN1; Gly(cPr) = N[C@H](C(=O)O)C1CC1; X65 = CC1(C(=O)*)CC(F)(F)C1; X77 = CC(F)(C(=O)*)C(F)(F)F

Columns and labels:
[1] = tested on: OVCAR3 cells; experiment: MTT proliferation assay, OVCAR3; type: cell-based; conditions: 5 days compound exposure, 1:3 serial dilution starting at 10 μM;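 also: compound given as an 8- or 10-point series, one day after plating, with exposure covering roughly 3-4 cell doublings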
[2] = biological target: T1, CyclinA2/CDK2 (Homo sapiens, UniProt P20248); experiment: Fluorescence Polarization (FP) competitive binding assay, Cyclin A2/Cdk2; conditions: 8 nM Cyclin A2/Cdk2, 2 nM FAM probe; average of 2-3 independent experiments; read-out: Cyclin A FP IC50;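 also: plates equilibrated two hours at room temperature before polarization reading, IC50 fitted from eight-concentration compound titration curves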
T1 construct: purchased CRELUX Protein Services

[3] = tested on: NCI-H1048 cells; experiment: MTT proliferation assay, NCI-H1048; type: cell-based; conditions: 5 days compound exposure, 1:3 serial dilution starting at 10 μM;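 also: Dose-response in 96-well plates over 8 or 10 concentration points, with exposure spanning 3-4 cell doublings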
[4] = biological target: T2, CyclinB1/CDK1 (Homo sapiens, UniProt P14635); experiment: Fluorescence Polarization (FP) competitive binding assay, Cyclin B1/Cdk1; conditions: 10 nM Cyclin B1/Cdk1, 2 nM FAM probe; average of 2-3 independent experiments; read-out: Cyclin B FP IC50;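 also: fluorescence polarization read after equilibration at room temperature, with IC50 taken from serially diluted dose-response curves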
T2 construct: purchased Eurofins, discovery 14-450

[5] = tested on: WI-38 cells; experiment: MTT proliferation assay, WI-38; type: cell-based; conditions: 3 days compound exposure, 1:3 serial dilution starting at 10 μM;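 also: Eight- or ten-point dilution series, with exposure length chosen to span about three to four cell doublings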
[6] = biological target: T3, CyclinE1/CDK2 (Homo sapiens, UniProt P24864); experiment: Fluorescence Polarization (FP) competitive binding assay, Cyclin E1/Cdk2; conditions: 10 nM Cyclin E1/Cdk2, 2 nM FAM probe; average of 2-3 independent experiments; read-out: Cyclin E FP IC50;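 also: readings taken after two-hour equilibration at room temperature in HEPES buffer with NaCl, DTT, NP-40 and BSA, IC50 fitted from eight-concentration serial dilution series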
T3 construct: purchased Eurofins, discovery 14-475

SMILES	GI50 [1]	IC50 [2]	GI50 [3]	IC50 [4]	GI50 [5]	IC50 [6]
CC(C)C[C@@H]1NC(=O)[C@@H](N(C)C(=O)[C@@H](NC(=O)[C@@H]2C[C@@H](F)CN2C(=O)C2(C(F)(F)F)CC(F)(F)C2)C2CC2)CCCCCCCN(C)C(=O)[C@H](Cc2cc(Cl)ccc2-c2ccc(N3C[C@H]4CC[C@@H](C3)N4C)cc2)N(C)C1=O [Example 362] ({cBuCO(3,3-F2-1-CF3)}-[Pro(trans-4-F)][Gly(cPr)][NMehhhLys(Me)]L[X53]; lactam 3-C)	10 nM	20 nM	10 nM	20 nM	1280 nM	600 nM
CC(C)C[C@@H]1NC(=O)[C@@H](N(C)C(=O)[C@@H](NC(=O)[C@@H]2C[C@@H](F)CN2C(=O)C2(C(F)(F)F)CC(F)(F)C2)C2CC2)CCCCCCCN(C)C(=O)[C@H](Cc2cc(Cl)ccc2-c2ccc(N3C[C@H]4COC[C@H]4C3)cc2)N(C)C1=O [Example 363] ({cBuCO(3,3-F2-1-CF3)}-[Pro(trans-4-F)][Gly(cPr)][NMehhhLys(Me)]L[X38]; lactam 3-C)	10 nM	20 nM	10 nM	20 nM	1430 nM	470 nM
CC(C)C[C@@H]1NC(=O)[C@@H](N(C)C(=O)[C@@H](NC(=O)[C@@H]2C[C@@H](F)CN2C(=O)C2(C(F)(F)F)CC(F)(F)C2)C2CC2)CCCCCCCN(C)C(=O)[C@H](Cc2cc(Cl)ccc2-c2ccc(N3CCN4CCOC[C@H]4C3)cc2)N(C)C1=O [Example 364] ({cBuCO(3,3-F2-1-CF3)}-[Pro(trans-4-F)][Gly(cPr)][NMehhhLys(Me)]L[X21]; lactam 3-C)	10 nM	20 nM	10 nM	20 nM	3250 nM	430 nM
CC(C)C[C@@H]1NC(=O)[C@@H](N(C)C(=O)[C@@H](NC(=O)[C@@H]2C[C@@H](F)CN2C(=O)C2(C)CC(F)(F)C2)C2CC2)CCCCCCCN(C)C(=O)[C@H](Cc2cc(Cl)ccc2-c2ccc(N3CCOCC3)cc2)N(C)C1=O [Example 365] (X65-[Pro(trans-4-F)][Gly(cPr)][NMehhhLys(Me)]L[NMePhe(2-(4-MorPh),5-Cl)]; lactam 3-C)	10 nM	20 nM	10 nM	20 nM	3180 nM	1170 nM
COc1cc(-c2ccc(Cl)cc2C[C@H]2C(=O)N(C)CCCCCCC[C@H](N(C)C(=O)[C@@H](NC(=O)[C@@H]3C[C@@H](F)CN3C(=O)C3(C(F)(F)F)CC(F)(F)C3)C3CC3)C(=O)N[C@@H](CC(C)C)C(=O)N2C)ccc1N1CCOCC1 [Example 367] ({cBuCO(3,3-F2-1-CF3)}-[Pro(trans-4-F)][Gly(cPr)][NMehhhLys(Me)]L[X91]; lactam 3-C)	10 nM	20 nM	20 nM	20 nM	14700 nM	1100 nM
CC(C)C[C@@H]1NC(=O)[C@@H](N(C)C(=O)[C@@H](NC(=O)[C@@H]2C[C@@H](F)CN2C(=O)C2(C(F)(F)F)CC(F)(F)C2)C2CC2)CCCCCCCN(C)C(=O)[C@H](Cc2cc(Cl)ccc2-c2ccc(N3CCN(Cc4ccccn4)CC3)cc2)N(C)C1=O [Example 368] ({cBuCO(3,3-F2-1-CF3)}-[Pro(trans-4-F)][Gly(cPr)][NMehhhLys(Me)]L[X106]; lactam 3-C)	10 nM	20 nM	10 nM	20 nM	15200 nM	480 nM
CC(C)C[C@@H]1NC(=O)[C@@H](N(C)C(=O)[C@@H](NC(=O)[C@@H]2C[C@@H](F)CN2C(=O)C2(C(F)(F)F)CC(F)(F)C2)C2CC2)CCCCCCCN(C)C(=O)[C@H](Cc2cc(Cl)ccc2-c2ccc([C@]34CCOC[C@H]3C4)nc2)N(C)C1=O [Example 369] ({cBuCO(3,3-F2-1-CF3)}-[Pro(trans-4-F)][Gly(cPr)][NMehhhLys(Me)]L[X85]; lactam 3-C)	20 nM	20 nM	20 nM	20 nM	4540 nM	1490 nM
CC(C)C[C@@H]1NC(=O)[C@@H](N(C)C(=O)[C@@H](NC(=O)[C@@H]2C[C@@H](F)CN2C(=O)C2(C(F)(F)F)CC(F)(F)C2)C2CC2)CCCCCCCN(C)C(=O)[C@H](Cc2cc(Cl)ccc2-c2ccc(C3(F)CCN(C)CC3)cc2)N(C)C1=O [Example 370] ({cBuCO(3,3-F2-1-CF3)}-[Pro(trans-4-F)][Gly(cPr)][NMehhhLys(Me)]L[X45]; lactam 3-C)	20 nM	20 nM	20 nM	20 nM	1210 nM	780 nM
CC(C)C[C@@H]1NC(=O)[C@@H](N(C)C(=O)[C@@H](NC(=O)[C@@H]2C[C@@H](F)CN2C(=O)C2(C(F)(F)F)CC(F)(F)C2)C2CC2)CCCCCCCN(C)C(=O)[C@H](Cc2cc(Cl)ccc2-c2ccc(OC3CCN(C)CC3)cc2)N(C)C1=O [Example 371] ({cBuCO(3,3-F2-1-CF3)}-[Pro(trans-4-F)][Gly(cPr)][NMehhhLys(Me)]L[X103]; lactam 3-C)	10 nM	20 nM	10 nM	20 nM	1440 nM	920 nM
CC(C)C[C@@H]1NC(=O)[C@@H](N(C)C(=O)[C@@H](NC(=O)[C@@H]2C[C@@H](F)CN2C(=O)C2(C(F)(F)F)CC(F)(F)C2)C2CC2)CCCCCCCN(C)C(=O)[C@H](Cc2cc(Cl)ccc2-c2ccc(N3CCN(Cc4cnn(C)c4)CC3)cc2)N(C)C1=O [Example 372] ({cBuCO(3,3-F2-1-CF3)}-[Pro(trans-4-F)][Gly(cPr)][NMehhhLys(Me)]L[X73]; lactam 3-C)	10 nM	20 nM	10 nM	20 nM	2840 nM	430 nM
Cc1cc(-c2ccc(Cl)cc2C[C@H]2C(=O)N(C)CCCCCCC[C@H](N(C)C(=O)[C@@H](NC(=O)[C@@H]3C[C@@H](F)CN3C(=O)C3(C(F)(F)F)CC(F)(F)C3)C3CC3)C(=O)N[C@@H](CC(C)C)C(=O)N2C)ccc1N1CCN(C)CC1 [Example 374] ({cBuCO(3,3-F2-1-CF3)}-[Pro(trans-4-F)][Gly(cPr)][NMehhhLys(Me)]L[X36]; lactam 3-C)	10 nM	20 nM	10 nM	20 nM	2220 nM	870 nM
CC(C)C[C@@H]1NC(=O)[C@@H](N(C)C(=O)[C@@H](NC(=O)[C@@H]2C[C@@H](F)CN2C(=O)C2(C(F)(F)F)CC(F)(F)C2)C2CC2)CCCCCCCN(C)C(=O)[C@H](Cc2cc(Cl)ccc2-c2ccc(-c3cccnc3)cc2)N(C)C1=O [Example 375] ({cBuCO(3,3-F2-1-CF3)}-[Pro(trans-4-F)][Gly(cPr)][NMehhhLys(Me)]L[X6]; lactam 3-C)	20 nM	20 nM	10 nM	20 nM	16800 nM	1730 nM
CC(C)C[C@@H]1NC(=O)[C@@H](N(C)C(=O)[C@@H](NC(=O)[C@@H]2C[C@@H](F)CN2C(=O)C2(C(F)(F)F)CC(F)(F)C2)C2CC2)CCCCCCCN(C)C(=O)[C@H](Cc2cc(Cl)ccc2C2=CCC(N3CCN(C)CC3)CC2)N(C)C1=O (stereo partly drawn) [Example 376] ({cBuCO(3,3-F2-1-CF3)}-[Pro(trans-4-F)][Gly(cPr)][NMehhhLys(Me)]L[X8]; lactam 3-C)	10 nM	20 nM	10 nM	20 nM	3450 nM	1330 nM
CC(C)C[C@@H]1NC(=O)[C@@H](N(C)C(=O)[C@@H](NC(=O)[C@@H]2C[C@@H](F)CN2C(=O)C(C)(F)C(F)(F)F)C2CC2)CCCCCCCN(C)C(=O)[C@H](Cc2cc(Cl)ccc2-c2ccc(N3CCOCC3)cc2)N(C)C1=O (stereo partly drawn) [Example 377] (X77-[Pro(trans-4-F)][Gly(cPr)][NMehhhLys(Me)]L[NMePhe(2-(4-MorPh),5-Cl)]; lactam 3-C)	10 nM	20 nM	10 nM	20 nM	8160 nM	340 nM
CC(C)C[C@@H]1NC(=O)[C@@H](N(C)C(=O)[C@@H](NC(=O)[C@@H]2C[C@@H](F)CN2C(=O)C2(C(F)(F)F)CC(F)(F)C2)C2CC2)CCCCCCCN(C)C(=O)[C@H](Cc2cc(Cl)ccc2-c2ccc(-c3cnn(C4CCN(C)CC4)c3)cc2)N(C)C1=O [Example 380] ({cBuCO(3,3-F2-1-CF3)}-[Pro(trans-4-F)][Gly(cPr)][NMehhhLys(Me)]L[X39]; lactam 3-C)	30 nM	30 nM	20 nM	20 nM	1170 nM	2170 nM
CC(C)C[C@@H]1NC(=O)[C@@H](N(C)C(=O)[C@@H](NC(=O)[C@@H]2C[C@@H](F)CN2C(=O)C2(C(F)(F)F)CC(F)(F)C2)C2CC2)CCCCCCCN(C)C(=O)[C@H](Cc2cc(Cl)ccc2-c2ccc(C3(N4CCN(C)CC4)CC3)cc2)N(C)C1=O [Example 381] ({cBuCO(3,3-F2-1-CF3)}-[Pro(trans-4-F)][Gly(cPr)][NMehhhLys(Me)]L[X78]; lactam 3-C)	40 nM	20 nM	20 nM	20 nM	2300 nM	1310 nM
